What was measured:
[1] = Antihypertensive activity: blood pressure and heart rate in anesthetized cats after i.v. administration; assay type: in vivo; details: for MBP (mm Hg) 1 hour / MBP (mm Hg) 2 hour: anesthetized cats
Protocol: (§1) Adult cats of either sex, 2-3 Kg, anesthetized with pentobarbital sodium (30 mg/Kg i.p.) were used. The trachea was intubated to provide artificial respiration with air by means of a Harvard respirator (respiration rate= 16-20/min and colume= 40-50 ml/stroke). Both femoral artery and vein were cannulated with PE 150 to monitor blood pressure and for drug administration respectively. Body temperature was maintained at 37.5°C with a heating pad and monitored with a rectal thermometer. Blood pressure was measured with a Statham P23D pressure transducer via a polyethylene cannula conducted to a right femoral artery. Heart rate was measured through a Grass Model 7B tachograph preamplifier triggered by the pulses of arterial blood pressure. All data were recorded on a Grass Model 7B polygraph.
The solvent (50% DM50) has no significant action on B.P. or H.R. However, Example 4 compound (250 µg/Kg) decreases B.P. immediately and reaches maximally at 5-10 minutes, and the duration of action is about 4 hours.

α₁-Adrenergic receptor = α₁-Adrenergic receptor binding assay with [³H] prazocin, rat brain cortex membranes; details: 0.2 nM [³H] prazocin, pH 7.4
Protocol: (§2) After the removal of nuclei by centrifugation at 1000 x g for 10 min, P₂ membranes were pelleted by centrifuging the supernatant at 22,000 x g for 20 min. After two periods of centrifugation at 22,000 x g and resuspension in fresh buffer, the membrane suspension (about 2 mg/ml protein) was ready for use.
(§3) α₁-Adrenergic receptor binding assays (in triplicate) were carried out with 0.2 nM [³H] prazocin in a final volume of 1.0 ml of Tris buffer at pH 7.4 for 30 min at room temperature, using 10 µM phentolamine to determine non-specific binding. The concentrations of synthetic compounds for competition binding were in the range of 0.1 - 200 nM. α₂-adrenergic receptor binding assays (in triplicate) were carried out with 1 nM [³H] clonidine in the presence of 10 mM MgCl₂ and in a final volume of 1.0 ml of Tris buffer at pH 7.4 for 30 min at room temperature, using 10 µM clonidine to determine non-specific binding. The concentrations of synthetic compounds for competition binding were in the range of 0.1-100 µM. After binding had reached equilibrium, incubations were terminated by collecting the membranes on whatman GF/B filters; the filters were washed twice with 5 ml of 50 mM Tris buffer (pH 7.4) at 4°C. The amount of membrane protein used in each assay was in the range of 300-400 µg, as determined by the method of Lowry et al..

α₂-adrenergic receptor = α₂-adrenergic receptor binding assay with [³H] clonidine, rat brain cortex membranes; details: for Ki: 1 nM [³H] clonidine, 10 mM MgCl₂, rat brain cortex membranes, pH 7.4; for α₂/α₁ ratio: ratio of α₂ Ki to α₁ Ki
Protocol: as §2, §3

[2] = Antagonistic effect on blood pressure responses induced by phenylephrine or serotonin in cats; assay type: in vivo; details: cats pretreated with dose of ED₅₀ (0.25mg/kg)
Protocol: • Fig. 1 is a does-response plot of 2-(4-phenyl-1-piperazinyl)methyl-2,3-dihydroimidazo[1,2-c]-quinazoline-5(6H)-one (Example 4) on blood pressure in 5 cats; • Fig. 2 is a time-course of various doeses of Example 4 compound on blood pressure in cats; and • Fig. 3 is a plot showing antagonistic effect of Example 4 compound (0.25mg/kg) on blood pressures induced by phenylephrine (0.015mg/kg) or serotonin (0.020mg/kg).
as §1

[3] = cats, i.v., 10 µg to 1 mg/kg, dose-dependent

Compound | MBP (mm Hg) 1 hour ([1]; dose 4.0 mg/Kg) [mm Hg] | Ki (α₁-Adrenergic receptor) [nM] | Ki (α₂-adrenergic receptor) [nM] | α₂/α₁ ratio (α₂-adrenergic receptor) | further results
2-(4-phenyl-1-piperazinyl)methyl-2,3-dihydroimidazo[1,2-c]quinazolin-5(6H)-thione [Example 20] | -33.9±9.7 | – | – | – | MBP (mm Hg) 2 hour ([1]; dose 4.0 mg/Kg): -22.5±7.6 mm Hg
2-[4-(4-fluorobenzyl)-1-piperazinyl]methyl-2,3-dihydroimidazo[1,2-c]quinazolin-5(6H)-one [Example 11] | – | 14.4 | 391 | 27 | –
O=C1Nc2ccccc2C2=NC(CN3CCN(c4ccccc4)CC3)CN12 (centres unmarked) [Example 4, 2-(4-phenyl-1-piperazinyl)methyl-2,3-dihydroimidazo[1,2-c]quinazolin-5(6H)-one] | – | 2.01 ± 0.09 | – | – | ED50 ([1]; Felis catus, iv, cats, i.v., read-out: ED₅₀ of lowing blood pressure): 0.25 mg/kg; time at which decrease of B.P. reaches maximally ([1]; anesthetized cat, 250 µg/Kg i.v.): 5 to 10 min; MBP (mm Hg) 1 hour ([1]; dose 0.125 mg/Kg): -12.5±4.6 mm Hg; MBP (mm Hg) 1 hour ([1]; dose 0.25 mg/Kg): -23.1±2.7 mm Hg; MBP (mm Hg) 2 hour ([1]; dose 0.25 mg/Kg): -8.75±5.7 mm Hg; MBP (mm Hg) 1 hour ([1]; dose 0.5 mg/Kg): -49.3±1.5 mm Hg; MBP (mm Hg) 2 hour ([1]; dose 0.5 mg/Kg): -32.5±2.5 mm Hg; MBP (mm Hg) 1 hour ([1]; dose 1.0 mg/Kg): -57.5±2.5 mm Hg; MBP (mm Hg) 2 hour ([1]; dose 1.0 mg/Kg): -44.5±0.5 mm Hg; changes in heart rate (HR) [1, 3]: biphasically (initially increases, then decreases); effect on SBP and DBP [1, 3]: decreases both SBP and DBP; blood pressure response to PE ([2]; phenylephrine 0.015mg/kg, p<0.02): significantly antagonizes; blood pressure response to 5-HT ([2]; serotonin 0.020mg/kg, p>0.05): no effect
O=C1Nc2ccccc2C2=NC(CN3CCN(Cc4ccc5c(c4)OCO5)CC3)CN12 (centres unmarked) [Example 6, 2-[4-piperonyl-1-piperazinyl]methyl-2,3-dihydroimidazo[1,2-c]quinazolin-5(6H)-one] | – | > 100 | – | – | –
COc1ccccc1N1CCN(CC2CN3C(=O)Nc4ccccc4C3=N2)CC1 (centres unmarked) [Example 7, 2-[4-(2-methoxy)phenyl-1-piperazinyl]methyl-2,3-dihydroimidazo[1,2-c]quinazolin-5(6H)-one] | – | 1.3 ± 0.5 | 3450 ± 329 | 2654 | MBP (mm Hg) 1 hour ([1]; dose 0.25 mg/Kg): -17.5 mm Hg; MBP (mm Hg) 1 hour ([1]; dose 0.5 mg/Kg): -20 mm Hg; MBP (mm Hg) 2 hour ([1]; dose 0.5 mg/Kg): -18.8 mm Hg; MBP (mm Hg) 1 hour ([1]; dose 1.0 mg/Kg): -30 mm Hg; MBP (mm Hg) 2 hour ([1]; dose 1.0 mg/Kg): -15 mm Hg
O=C1Nc2ccccc2C2=NC(CN3CCN(Cc4ccccc4)CC3)CN12 (centres unmarked) [Example 8, 2-[4-Benzyl-1-piperazinyl]methyl-2,3-dihydroimidazo[1,2-c]quinazolin-5(6H)-one] | -43.7±5.2 | 850 | > 10000 | >11 | –
O=C1Nc2ccccc2C2=NC(CN3CCC(Cc4ccccc4)CC3)CN12 (centres unmarked) [Example 9, 2-[4-Benzyl-1-piperidinyl]methyl-2,3-dihydroimidazo[1,2-c]quinazolin-5(6H)-one] | -30.6±4.7 | 35.8 ± 8.6 | 5011 ± 11 | 140 | –
O=C1Nc2ccccc2C2=NC(CN3CCN(c4ccccn4)CC3)CN12 (centres unmarked) [Example 10, 2-[4-(2-Pyridinyl)-1-piperazinyl]methyl-2,3-dihydroimidazo[1,2-c]quinazolin-5(6H)-one] | – | 95.9 ± 5.2 | – | – | –
O=C1Nc2ccccc2C2=NC(CNC3CCN(Cc4ccccc4)CC3)CN12 (centres unmarked) [Example 12, 2-[1-benzylpiperidin-4-yl]aminomethyl-2,3-dihydroimidazo[1,2-c]quinazolin-5(6H)-one] | – | 586 ± 9 | – | – | –
O=C(c1ccc(F)cc1)C1CCN(CC2CN3C(=O)Nc4ccccc4C3=N2)CC1 (centres unmarked) [Example 15, 2-[1-(4-p-fluorobenzoyl)piperidinyl]methyl-2,3-dihydroimidazo[1,2-c]quinazolin-5(6H)-one] | -30 ±7.3 | – | – | – | MBP (mm Hg) 2 hour ([1]; dose 4.0 mg/Kg): -13.8±8.9 mm Hg
COc1ccc(N2CCN(CC3CN4C(=O)Nc5ccccc5C4=N3)CC2)cc1 (centres unmarked) [Example 16, 2-[1-(4-methoxyphenyl)piperazinyl]methyl-2,3-dihydroimidazo[1,2-c]quinazolin-5(6H)-one] | – | > 100 | – | – | –
COc1cccc(N2CCN(CC3CN4C(=O)Nc5ccccc5C4=N3)CC2)c1 (centres unmarked) [Example 17, 2-[1-(3-methoxyphenyl)piperazinyl]methyl-2,3-dihydroimidazo[1,2-c]quinazolin-5(6H)-one] | -20.3±10.2 | – | – | – | MBP (mm Hg) 2 hour ([1]; dose 4.0 mg/Kg): -8.5±2.6 mm Hg
COc1cc2c(cc1OC)C1=NC(CN3CCN(c4ccccc4)CC3)CN1C(=O)N2 (centres unmarked) [Example 25, 2-(4-phenyl-1-piperazinyl)methyl-8,9-dimethoxy-2,3-dihydro-imidazo[1,2-c]quinazolin-5(6H)-one] | -38.2±5.7 | 30 ± 10 | 1690 | 54 | MBP (mm Hg) 2 hour ([1]; dose 4.0 mg/Kg): -12.6±5.0 mm Hg
O=C1Nc2ccccc2C2=NC(CN3CCN(c4ccccc4Cl)CC3)CN12 (centres unmarked) [Example 26, 2-[4-(2-chlorophenyl)-1-piperazinyl]methyl-2,3-dihydroimidazo[1,2-c]quinazolin-5(6H)-one] | – | 1.1 ± 0.05 | 3170 ± 396 | 3015 | MBP (mm Hg) 1 hour ([1]; dose 0.5 mg/Kg): -25.5±3.4 mm Hg; MBP (mm Hg) 2 hour ([1]; dose 0.5 mg/Kg): -5.7±1.5 mm Hg; MBP (mm Hg) 1 hour ([1]; dose 1.0 mg/Kg): -40.7±9.7 mm Hg; MBP (mm Hg) 2 hour ([1]; dose 1.0 mg/Kg): -12.6±3.4 mm Hg
CN1C(=O)N2CC(CN3CCN(c4ccccc4Cl)CC3)N=C2c2ccccc21 (centres unmarked) [Example 28, 2-[4-(2-chlorophenyl)-1-piperazinyl]methyl-6-methyl-2,3-dihydroimidazo[1,2-c]quinazolin-5-one] | – | 0.68 ± 0.26 | – | – | –
